In patent US10865208B2, “ATG7 inhibitors and the uses thereof” (Millennium Pharmaceuticals, Inc., priority 2016, dated 2020):

Target: recombinant human His-ATG7 enzyme (Homo sapiens (Human), UniProt O95352)
Assay: ATG7 Enzyme Assay (HTRF/FRET, ATG3-GST and Flag-Gabarap)
Format: biochemical
Conditions: for inhibition at 0.111 µM: Concentration 0.111 μM, read-out: Percent Inhibition
In short: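 HTRF read-out after 2 h at 24° C, using Eu-cryptate anti-Flag and XL-APC anti-GST antibodies in an EDTA stop buffer. The preceding 105 min, 24° C reaction (pH 7.5) held 10 μM ATP, 5 nM each ATG3-GST and Flag-Gabarap, and 0.15 nM human His-ATG7. Values are IC50 or percent inhibition at one concentration.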

recombinant human His-ATG7 enzyme, sequence (O95352 whole entry): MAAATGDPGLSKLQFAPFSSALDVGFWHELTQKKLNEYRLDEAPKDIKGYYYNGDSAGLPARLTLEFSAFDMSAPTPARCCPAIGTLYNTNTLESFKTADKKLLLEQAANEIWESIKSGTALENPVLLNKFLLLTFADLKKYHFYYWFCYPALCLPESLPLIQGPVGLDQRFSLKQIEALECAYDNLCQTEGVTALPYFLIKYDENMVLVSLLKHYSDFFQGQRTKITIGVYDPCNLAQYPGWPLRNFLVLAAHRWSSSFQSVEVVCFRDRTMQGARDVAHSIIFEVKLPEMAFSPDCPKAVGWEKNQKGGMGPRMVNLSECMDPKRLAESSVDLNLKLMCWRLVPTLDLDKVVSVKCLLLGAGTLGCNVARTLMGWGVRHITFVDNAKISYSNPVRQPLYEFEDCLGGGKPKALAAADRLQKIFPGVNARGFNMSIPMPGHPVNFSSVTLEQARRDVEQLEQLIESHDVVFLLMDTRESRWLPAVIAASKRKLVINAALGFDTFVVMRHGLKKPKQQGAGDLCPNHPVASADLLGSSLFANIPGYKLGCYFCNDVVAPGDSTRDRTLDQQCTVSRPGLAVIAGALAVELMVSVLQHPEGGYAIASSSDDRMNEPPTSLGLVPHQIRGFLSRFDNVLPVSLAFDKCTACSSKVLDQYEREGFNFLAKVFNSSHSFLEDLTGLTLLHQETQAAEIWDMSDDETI

Compound	IC50	inhibition at 0.111 µM
Nc1ncnc2c1c(SCC1CC1)nn2[C@H]1C[C@H](O)[C@@H](COS(N)(=O)=O)O1 [Compound I-202, [(2R,3S,5R)-5-{4-amino-3-[(cyclopropylmethyl)sulfanyl]-1H-pyrazolo[3,4-d]pyrimidin-1-yl}-3-hydroxytetrahydrofuran-2-yl]methyl Sulfamate]	50 to 100 nM	62%
Nc1ncnc2c1c(Sc1cc3c(cc1F)CCC3)nn2[C@H]1C[C@H](O)[C@@H](COS(N)(=O)=O)O1 [Compound I-203, [(2R,3S,5R)-5-{4-amino-3-[(6-fluoro-2,3-dihydro-1H-inden-5-yl)sulfanyl]-1H-pyrazolo[3,4-d]pyrimidin-1-yl}-3-hydroxytetrahydrofuran-2-yl]methyl Sulfamate]	50 to 100 nM	58%
Nc1ncnc2c1c(SCc1cc3ccccc3s1)nn2[C@H]1C[C@H](O)[C@@H](COS(N)(=O)=O)O1 [Compound I-204, [(2R,3S,5R)-5-{4-amino-3-[(1-benzothiophen-2-ylmethyl)sulfanyl]-1H-pyrazolo[3,4-d]pyrimidin-1-yl}-3-hydroxytetrahydrofuran-2-yl]methyl sulfamate]	100 to 500 nM	50%
Cc1cccc(Sc2nn([C@H]3C[C@H](O)[C@@H](COS(N)(=O)=O)O3)c3ncnc(N)c23)c1 [Compound I-205, [(2R,3S,5R)-5-{4-amino-3-[(3-methylphenyl)sulfanyl]-1H-pyrazolo[3,4-d]pyrimidin-1-yl}-3-hydroxytetrahydrofuran-2-yl]methyl sulfamate]	50 to 100 nM	55%
Nc1ncnc2c1c(Sc1cccc(F)c1)nn2[C@H]1C[C@H](O)[C@@H](COS(N)(=O)=O)O1 [Compound I-206, [(2R,3S,5R)-5-{4-amino-3-[(3-fluorophenyl)sulfanyl]-1H-pyrazolo[3,4-d]pyrimidin-1-yl}-3-hydroxytetrahydrofuran-2-yl]methyl sulfamate]	100 to 500 nM	44%
COc1ccc(Sc2nn([C@H]3C[C@H](O)[C@@H](COS(N)(=O)=O)O3)c3ncnc(N)c23)cc1OC [Compound I-207, [(2R,3S,5R)-5-{4-amino-3-[(3,4-dimethoxyphenyl)sulfanyl]-1H-pyrazolo[3,4-d]pyrimidin-1-yl}-3-hydroxytetrahydrofuran-2-yl]methyl sulfamate]	50 to 100 nM	65%
Cc1csc(Sc2nn([C@H]3C[C@H](O)[C@@H](COS(N)(=O)=O)O3)c3ncnc(N)c23)n1 [Compound I-208, [(2R,3S,5R)-5-{4-amino-3-[(4-methyl-1,3-thiazol-2-yl)sulfanyl]-1H-pyrazolo[3,4-d]pyrimidin-1-yl}-3-hydroxytetrahydrofuran-2-yl]methyl sulfamate]	100 to 500 nM	44%
Nc1ncnc2c1c(C(F)(F)F)nn2[C@H]1C[C@H](O)[C@H](COS(N)(=O)=O)O1 [Compound I-209, {(2S,3S,5R)-5-[4-amino-3-(trifluoromethyl)-1H-pyrazolo[3,4-d]pyrimidin-1-yl]-3-hydroxytetrahydrofuran-2-yl}methyl Sulfamate]	100 to 500 nM	42%
Nc1ncnc2c1c(Sc1ccc3ccccc3c1)nn2[C@H]1C[C@H](O)[C@H](COS(N)(=O)=O)O1 [Compound I-210, {(2S,3S,5R)-5-[4-amino-3-(2-naphthylsulfanyl)-1H-pyrazolo[3,4-d]pyrimidin-1-yl]-3-hydroxytetrahydrofuran-2-yl}methyl Sulfamate]	100 to 500 nM	35%
CCc1nn([C@H]2C[C@H](O)[C@H](COS(N)(=O)=O)O2)c2ncnc(N)c12 [Compound I-212, [(2S,3S,5R)-5-(4-amino-3-ethyl-1H-pyrazolo[3,4-d]pyrimidin-1-yl)-3-hydroxytetrahydrofuran-2-yl]methylsulfamate]		7%
CCSc1nn([C@H]2C[C@H](O)[C@H](COS(N)(=O)=O)O2)c2ncnc(N)c12 [Compound I-213, {(2S,3S,5R)-5-[4-amino-3-(ethylsulfanyl)-1H-pyrazolo[3,4-d]pyrimidin-1-yl]-3-hydroxytetrahydrofuran-2-yl}methyl sulfamate]	100 to 500 nM	46%
Cc1ccc(Sc2nn([C@H]3C[C@H](O)[C@H](COS(N)(=O)=O)O3)c3ncnc(N)c23)cc1 [Compound I-214, [(2S,3S,5R)-5-{4-amino-3-[(4-methylphenyl)sulfanyl]-1H-pyrazolo[3,4-d]pyrimidin-1-yl}-3-hydroxytetrahydrofuran-2-yl]methyl sulfamate]	100 to 500 nM	43%
Nc1ncnc2c1c(Sc1ccccc1F)nn2[C@H]1C[C@H](O)[C@H](COS(N)(=O)=O)O1 [Compound I-215, [(2S,3S,5R)-5-{4-amino-3-[(2-fluorophenyl)sulfanyl]-1H-pyrazolo[3,4-d]pyrimidin-1-yl}-3-hydroxytetrahydrofuran-2-yl]methyl sulfamate]	100 to 500 nM	45%
Nc1ncnc2c1c(Sc1ccc3c(c1)CCC3)nn2[C@H]1C[C@H](O)[C@H](COS(N)(=O)=O)O1 [Compound I-216, {(2S,3S,5R)-5-[4-amino-3-(2,3-dihydro-1H-inden-5-ylsulfanyl)-1H-pyrazolo[3,4-d]pyrimidin-1-yl]-3-hydroxytetrahydrofuran-2-yl}methyl sulfamate]	100 to 500 nM	41%

Other lines, results leading:

IC50	inhibition at 0.111 µM	Compound
100 to 500 nM	34%	Nc1ncnc2c1c(C(F)F)nn2[C@H]1C[C@H](O)[C@H](COS(N)(=O)=O)O1 [Compound I-217, {(2S,3S,5R)-5-[4-amino-3-(difluoromethyl)-1H-pyrazolo[3,4-d]pyrimidin-1-yl]-3-hydroxytetrahydrofuran-2-yl}methyl Sulfamate]
> 500 nM	8%	Cc1nn([C@H]2C[C@H](O)[C@H](COS(N)(=O)=O)O2)c2ncnc(N)c12 [Compound I-218, [(2S,3S,5R)-5-(4-amino-3-methyl-1H-pyrazolo[3,4-d]pyrimidin-1-yl)-3-hydroxytetrahydrofuran-2-yl]methyl Sulfamate]
100 to 500 nM	48%	CSc1nn([C@H]2C[C@H](O)[C@H](COS(N)(=O)=O)O2)c2ncnc(N)c12 [Compound I-219, {(2S,3S,5R)-5-[4-amino-3-(methylsulfanyl)-1H-pyrazolo[3,4-d]pyrimidin-1-yl]-3-hydroxytetrahydrofuran-2-yl}methyl Sulfamate]
50 to 100 nM	65%	CC(C)Sc1nn([C@H]2C[C@H](O)[C@H](COS(N)(=O)=O)O2)c2ncnc(N)c12 [Compound I-220, {(2S,3S,5R)-5-[4-amino-3-(isopropylsulfanyl)-1H-pyrazolo[3,4-d]pyrimidin-1-yl]-3-hydroxytetrahydrofuran-2-yl}methyl sulfamate]
100 to 500 nM	26%	Nc1ncnc2c1c(SCc1ccccc1)nn2[C@H]1C[C@H](O)[C@H](COS(N)(=O)=O)O1 [Compound I-221, {(2S,3S,5R)-5-[4-amino-3-(benzylsulfanyl)-1H-pyrazolo[3,4-d]pyrimidin-1-yl]-3-hydroxytetrahydrofuran-2-yl}methyl Sulfamate]
50 to 100 nM	59%	Nc1ncnc2c1c(Sc1ccc(Cl)cn1)nn2[C@H]1C[C@H](O)[C@H](COS(N)(=O)=O)O1 [Compound I-222, [(2S,3S,5R)-5-{4-amino-3-[(5-chloropyridin-2-yl)sulfanyl]-1H-pyrazolo[3,4-d]pyrimidin-1-yl}-3-hydroxytetrahydrofuran-2-yl]methyl sulfamate]
100 to 500 nM	35%	Nc1ncnc2c1c(Sc1ccc(F)cc1)nn2[C@H]1C[C@H](O)[C@H](COS(N)(=O)=O)O1 [Compound I-223, [(2S,3S,5R)-5-{4-amino-3-[(4-fluorophenyl)sulfanyl]-1H-pyrazolo[3,4-d]pyrimidin-1-yl}-3-hydroxytetrahydrofuran-2-yl]methyl sulfamate]
100 to 500 nM	39%	Nc1ncnc2c1c(Sc1cccc(Cl)c1)nn2[C@H]1C[C@H](O)[C@H](COS(N)(=O)=O)O1 [Compound I-224, [(2S,3S,5R)-5-{4-amino-3-[(3-chlorophenyl)sulfanyl]-1H-pyrazolo[3,4-d]pyrimidin-1-yl}-3-hydroxytetrahydrofuran-2-yl]methyl sulfamate]
> 500 nM	10%	COc1nn([C@H]2C[C@H](O)[C@H](COS(N)(=O)=O)O2)c2ncnc(N)c12 [Compound I-225, [(2S,3S,5R)-5-(4-amino-3-methoxy-1H-pyrazolo[3,4-d]pyrimidin-1-yl)-3-hydroxytetrahydrofuran-2-yl]methyl sulfamate]
100 to 500 nM	48%	Nc1ncnc2c1c(SCC(F)F)nn2[C@H]1C[C@H](O)[C@H](COS(N)(=O)=O)O1 [Compound I-227, [(2S,3S,5R)-5-{4-amino-3-[(2,2-difluoroethyl)sulfanyl]-1H-pyrazolo[3,4-d]pyrimidin-1-yl}-3-hydroxytetrahydrofuran-2-yl]methyl Sulfamate]
